# Experimental data reported in PubChem BioAssay AID1918998 (Molecular Pharmacology Branch, DTP, NCI, 2023).
# pIC50: −log10 of the molar value.
# Test system: 521955-158-R2-J5-PDC complex spheroid growth
# Test: Anticancer human tumor 521955-158-R2-J5-PDC patient-derived pancreatic carcinoma cell line growth inhibition [AhR]
# Details: for pIC50: curve of first compound; for viability, T/C: stronger effect = lower value
# Procedure, shortened: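 Spheroids combined tumor cells with HUVEC endothelial cells and human MSCs as stroma. AhR antagonists were paired with standard or investigational drugs, each dosed in half-log steps down from near clinical Cmax, or from 10 microM where Cmax was unknown.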
# [1] = second compound 0.1 µM, first compound 0.0316 µM
# [2] = second compound 0.1 µM, first compound 0.1 µM
# [3] = second compound 0.1 µM, first compound 0.316 µM
# [4] = second compound 0.1 µM, first compound 1 µM
# [5] = second compound 0.1 µM, first compound 3.16 µM
# [6] = second compound 0.1 µM, first compound 10 µM
# [7] = second compound 0.316 µM, first compound 0.0316 µM
# [8] = second compound 0.316 µM, first compound 0.1 µM
# [9] = second compound 0.316 µM, first compound 0.316 µM
# [10] = second compound 0.316 µM, first compound 1 µM
# [11] = second compound 0.316 µM, first compound 3.16 µM
# [12] = second compound 0.316 µM, first compound 10 µM
# [13] = second compound 1 µM, first compound 0.0316 µM
# [14] = second compound 1 µM, first compound 0.1 µM
# [15] = second compound 1 µM, first compound 0.316 µM
# [16] = second compound 1 µM, first compound 1 µM
# [17] = second compound 1 µM, first compound 3.16 µM
# [18] = second compound 1 µM, first compound 10 µM
# [19] = second compound 3.16 µM, first compound 0.0316 µM
# [20] = second compound 3.16 µM, first compound 0.1 µM
# [21] = second compound 3.16 µM, first compound 0.316 µM
# [22] = second compound 3.16 µM, first compound 1 µM
# [23] = second compound 3.16 µM, first compound 3.16 µM
# [24] = second compound 3.16 µM, first compound 10 µM
# [25] = second compound 10 µM, first compound 0.0316 µM
# [26] = second compound 10 µM, first compound 0.1 µM
# [27] = second compound 10 µM, first compound 0.316 µM
# [28] = second compound 10 µM, first compound 1 µM
# [29] = second compound 10 µM, first compound 3.16 µM
# [30] = second compound 10 µM, first compound 10 µM
# [31] = second compound 0.1 µM, first compound 0.00949 µM
# [32] = second compound 0.1 µM, first compound 0.03 µM
# [33] = second compound 0.1 µM, first compound 0.0949 µM
# [34] = second compound 0.1 µM, first compound 0.3 µM
# [35] = second compound 0.316 µM, first compound 0.00949 µM
# [36] = second compound 0.316 µM, first compound 0.03 µM
# [37] = second compound 0.316 µM, first compound 0.0949 µM
# [38] = second compound 0.316 µM, first compound 0.3 µM
# [39] = second compound 1 µM, first compound 0.00949 µM
# [40] = second compound 1 µM, first compound 0.03 µM
# [41] = second compound 1 µM, first compound 0.0949 µM
# [42] = second compound 1 µM, first compound 0.3 µM
# [43] = second compound 3.16 µM, first compound 0.00949 µM
# [44] = second compound 3.16 µM, first compound 0.03 µM
# [45] = second compound 3.16 µM, first compound 0.0949 µM
# [46] = second compound 3.16 µM, first compound 0.3 µM
# [47] = second compound 10 µM, first compound 0.00949 µM
# [48] = second compound 10 µM, first compound 0.03 µM
# [49] = second compound 10 µM, first compound 0.0949 µM
# [50] = second compound 10 µM, first compound 0.3 µM
# 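Throughout, for viability, T/C: spheroids mix tumor cells with HUVEC endothelium and human MSC stroma; luminescence taken as viability surrogate after a week of drug exposure.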
smiles,measurement,setting,value
CC1(C)CCC(CN2CCN(c3ccc(C(=O)NS(=O)(=O)c4ccc(NCC5CCOCC5)c([N+](=O)[O-])c4)c(Oc4cnc5[nH]ccc5c4)c3)CC2)=C(c2ccc(Cl)cc2)C1 + Cc1cncc(-c2nc(NCCc3c[nH]c4ccccc34)c3ncn(C(C)C)c3n2)c1,pIC50,second compound 0.1 µM,< 5.00
same,pIC50,second compound 0.316 µM,< 5.00
same,pIC50,second compound 1 µM,< 5.00
same,pIC50,second compound 3.16 µM,< 5.00
same,pIC50,second compound 10 µM,< 5.00
same,"viability, T/C",[1],110%
same,"viability, T/C",[2],111%
same,"viability, T/C",[3],102%
same,"viability, T/C",[4],104%
same,"viability, T/C",[5],92.8%
same,"viability, T/C",[6],74.7%
same,"viability, T/C",[7],104%
same,"viability, T/C",[8],109%
same,"viability, T/C",[9],119%
same,"viability, T/C",[10],105%
same,"viability, T/C",[11],99.9%
same,"viability, T/C",[12],79.5%
same,"viability, T/C",[13],111%
same,"viability, T/C",[14],124%
same,"viability, T/C",[15],121%
same,"viability, T/C",[16],111%
same,"viability, T/C",[17],111%
same,"viability, T/C",[18],76.3%
same,"viability, T/C",[19],146%
same,"viability, T/C",[20],123%
same,"viability, T/C",[21],133%
same,"viability, T/C",[22],120%
same,"viability, T/C",[23],113%
same,"viability, T/C",[24],94.9%
same,"viability, T/C",[25],148%
same,"viability, T/C",[26],147%
same,"viability, T/C",[27],138%
same,"viability, T/C",[28],156%
same,"viability, T/C",[29],118%
same,"viability, T/C",[30],102%
CC1COCCN1c1cc(C2(S(C)(=N)=O)CC2)nc(-c2ccnc3[nH]ccc23)n1 (stereo not given) + Cc1cncc(-c2nc(NCCc3c[nH]c4ccccc34)c3ncn(C(C)C)c3n2)c1,pIC50,second compound 0.1 µM,5.61
same,pIC50,second compound 0.316 µM,5.59
same,pIC50,second compound 1 µM,5.59
same,pIC50,second compound 3.16 µM,5.58
same,pIC50,second compound 10 µM,5.61
same,"viability, T/C",[1],115%
same,"viability, T/C",[2],108%
same,"viability, T/C",[3],114%
same,"viability, T/C",[4],107%
same,"viability, T/C",[5],33.8%
same,"viability, T/C",[6],15.5%
same,"viability, T/C",[7],125%
same,"viability, T/C",[8],131%
same,"viability, T/C",[9],105%
same,"viability, T/C",[10],118%
same,"viability, T/C",[11],35.1%
same,"viability, T/C",[12],14.4%
same,"viability, T/C",[13],140%
same,"viability, T/C",[14],138%
same,"viability, T/C",[15],131%
same,"viability, T/C",[16],128%
same,"viability, T/C",[17],33.5%
same,"viability, T/C",[18],15.5%
same,"viability, T/C",[19],139%
same,"viability, T/C",[20],142%
same,"viability, T/C",[21],154%
same,"viability, T/C",[22],128%
same,"viability, T/C",[23],35.7%
same,"viability, T/C",[24],14.5%
same,"viability, T/C",[25],130%
same,"viability, T/C",[26],132%
same,"viability, T/C",[27],139%
same,"viability, T/C",[28],111%
same,"viability, T/C",[29],33.9%
same,"viability, T/C",[30],14.3%
CCN(c1cc(-c2ccc(CN3CCOCC3)cc2)cc(C(=O)NCc2c(C)cc(C)[nH]c2=O)c1C)C1CCOCC1 + Cc1cncc(-c2nc(NCCc3c[nH]c4ccccc34)c3ncn(C(C)C)c3n2)c1,pIC50,second compound 0.1 µM,< 5.52
same,pIC50,second compound 0.316 µM,< 5.52
same,pIC50,second compound 1 µM,< 5.52
same,pIC50,second compound 3.16 µM,< 5.52
same,pIC50,second compound 10 µM,< 5.52
same,"viability, T/C",[31],118%
same,"viability, T/C",[32],112%
same,"viability, T/C",[33],124%
same,"viability, T/C",[34],94.7%
same,"viability, T/C","second compound 0.1 µM, first compound 0.949 µM",117%
same,"viability, T/C","second compound 0.1 µM, first compound 3 µM",95.9%
same,"viability, T/C",[35],99.5%
same,"viability, T/C",[36],108%
same,"viability, T/C",[37],106%
same,"viability, T/C",[38],109%
same,"viability, T/C","second compound 0.316 µM, first compound 0.949 µM",110%
same,"viability, T/C","second compound 0.316 µM, first compound 3 µM",104%
same,"viability, T/C",[39],125%
same,"viability, T/C",[40],130%
same,"viability, T/C",[41],122%
same,"viability, T/C",[42],118%
same,"viability, T/C","second compound 1 µM, first compound 0.949 µM",99.6%
same,"viability, T/C","second compound 1 µM, first compound 3 µM",115%
same,"viability, T/C",[43],158%
same,"viability, T/C",[44],133%
same,"viability, T/C",[45],130%
same,"viability, T/C",[46],148%
same,"viability, T/C","second compound 3.16 µM, first compound 0.949 µM",110%
same,"viability, T/C","second compound 3.16 µM, first compound 3 µM",124%
same,"viability, T/C",[47],112%
same,"viability, T/C",[48],140%
same,"viability, T/C",[49],111%
same,"viability, T/C",[50],116%
same,"viability, T/C","second compound 10 µM, first compound 0.949 µM",84.2%
same,"viability, T/C","second compound 10 µM, first compound 3 µM",72.3%
Nc1ncn(C2CC(O)C(CO)S2)c(=O)n1 (stereo not given) + Cc1cncc(-c2nc(NCCc3c[nH]c4ccccc34)c3ncn(C(C)C)c3n2)c1,pIC50,second compound 0.1 µM,< 6.52
same,pIC50,second compound 0.316 µM,< 6.52
same,pIC50,second compound 1 µM,< 6.52
same,pIC50,second compound 3.16 µM,< 6.52
same,pIC50,second compound 10 µM,< 6.52
same,"viability, T/C","second compound 0.1 µM, first compound 0.000949 µM",115%
same,"viability, T/C","second compound 0.1 µM, first compound 0.003 µM",113%
same,"viability, T/C",[31],123%
same,"viability, T/C",[32],105%
same,"viability, T/C",[33],93.3%
same,"viability, T/C",[34],97.8%
same,"viability, T/C","second compound 0.316 µM, first compound 0.000949 µM",112%
same,"viability, T/C","second compound 0.316 µM, first compound 0.003 µM",112%
same,"viability, T/C",[35],117%
same,"viability, T/C",[36],115%
same,"viability, T/C",[37],99.5%
same,"viability, T/C",[38],93.7%
same,"viability, T/C","second compound 1 µM, first compound 0.000949 µM",126%
same,"viability, T/C","second compound 1 µM, first compound 0.003 µM",161%
same,"viability, T/C",[39],158%
same,"viability, T/C",[40],125%
same,"viability, T/C",[41],125%
same,"viability, T/C",[42],99%
same,"viability, T/C","second compound 3.16 µM, first compound 0.000949 µM",146%
same,"viability, T/C","second compound 3.16 µM, first compound 0.003 µM",129%
same,"viability, T/C",[43],122%
same,"viability, T/C",[44],123%
same,"viability, T/C",[45],118%
same,"viability, T/C",[46],128%
same,"viability, T/C","second compound 10 µM, first compound 0.000949 µM",145%
same,"viability, T/C","second compound 10 µM, first compound 0.003 µM",143%
same,"viability, T/C",[47],105%
same,"viability, T/C",[48],142%
same,"viability, T/C",[49],114%
same,"viability, T/C",[50],121%
